According to publication PMC5218480 (PLoS ONE, 2017):

Test system: MV-4-11 cells
Test: Gene expression microarray analysis (Affymetrix PrimeView) and GSEA
Assay type: cell-based, human
Parameters: RFU PODN (11730768_x_at) / Fold change /veh PODN (11730768_x_at) / RFU LINC00158 (11744669_a_at) / Fold change /veh LINC00158 (11744669_a_at) / RFU DUSP10 (11751237_a_at) / Fold change /veh DUSP10 (11751237_a_at) / RFU ID3 (11757404_x_at) / Fold change /veh ID3 (11757404_x_at) / RFU PLEKHG5 (11737974_s_at) / Fold change /veh PLEKHG5 (11737974_s_at) / RFU LRRC4B (11730491_at) / Fold change /veh LRRC4B (11730491_at) / RFU GIMAP4 (11747438_a_at) / Fold change /veh GIMAP4 (11747438_a_at) / RFU KRT8 (11758183_x_at) / Fold change /veh KRT8 (11758183_x_at) / RFU CNN1 (11734310_a_at) / Fold change /veh CNN1 (11734310_a_at) / RFU VPS37D (11726825_at) / Fold change /veh VPS37D (11726825_at) / RFU C10orf10 (11716522_x_at) / Fold change /veh C10orf10 (11716522_x_at) / RFU KIR2DL2 /// KIR2DL4 /// KIR2DL5A /// KIR2DL5B /// KIR2DS1 /// KIR2DS2 /// KIR2DS3 /// KIR2DS4 /// KIR3DL3 /// KIR3DL3 /// KIR3DS1 (11738374_at) / Fold change /veh KIR2DL2 /// KIR2DL4 /// KIR2DL5A /// KIR2DL5B /// KIR2DS1 /// KIR2DS2 /// KIR2DS3 /// KIR2DS4 /// KIR3DL3 /// KIR3DL3 /// KIR3DS1 (11738374_at) / RFU C1QL1 (11718748_at) / Fold change /veh C1QL1 (11718748_at) / RFU TMPRSS4 (11747572_a_at) / Fold change /veh TMPRSS4 (11747572_a_at) / RFU HAMP (11756126_x_at) / Fold change /veh HAMP (11756126_x_at) / RFU RNFT2 (11725882_a_at) / Fold change /veh RNFT2 (11725882_a_at) / RFU NR4A2 (11747474_a_at) / Fold change /veh NR4A2 (11747474_a_at) / RFU ABCC12 (11746883_a_at) / Fold change /veh ABCC12 (11746883_a_at) / RFU TMEM136 (11760407_x_at) / Fold change /veh TMEM136 (11760407_x_at) / RFU CLDN22 /// WWC2 (11732394_at) / Fold change /veh CLDN22 /// WWC2 (11732394_at) / RFU HLA-DPB1 (11760878_x_at) / Fold change /veh HLA-DPB1 (11760878_x_at) / RFU SPINT1 (11716480_a_at) / Fold change /veh SPINT1 (11716480_a_at) / RFU GAP43 (11754022_s_at) / Fold change /veh GAP43 (11754022_s_at) / RFU A4GNT (11735810_at) / Fold change /veh A4GNT (11735810_at) / RFU PRB3 (11715151_x_at) / Fold change /veh PRB3 (11715151_x_at) / RFU TUBB4B (11761932_at) / Fold change /veh TUBB4B (11761932_at) / RFU CAPN14 (11732068_a_at) / Fold change /veh CAPN14 (11732068_a_at) / RFU TMCC2 (11721928_a_at) / Fold change /veh TMCC2 (11721928_a_at) / RFU IRGQ (11745062_a_at) / Fold change /veh IRGQ (11745062_a_at) / RFU FAM174B (11720279_a_at) / Fold change /veh FAM174B (11720279_a_at) / RFU TMPRSS4 (11748680_a_at) / Fold change /veh TMPRSS4 (11748680_a_at) / RFU FAM212B (11763350_a_at) / Fold change /veh FAM212B (11763350_a_at) / RFU PLEKHG5 (11743358_a_at) / Fold change /veh PLEKHG5 (11743358_a_at) / RFU ZSCAN30 (11745921_a_at) / Fold change /veh ZSCAN30 (11745921_a_at) / RFU CMKLR1 (11741424_a_at) / Fold change /veh CMKLR1 (11741424_a_at) / RFU LOC101060620 /// MAPK8IP1 (11723275_at) / Fold change /veh LOC101060620 /// MAPK8IP1 (11723275_at) / RFU SPTSSB (11747773_x_at) / Fold change /veh SPTSSB (11747773_x_at) / RFU PRSS12 (11739890_at) / Fold change /veh PRSS12 (11739890_at) / RFU BIN1 (11741810_x_at) / Fold change /veh BIN1 (11741810_x_at) / RFU WNT11 (11732464_a_at) / Fold change /veh WNT11 (11732464_a_at) / RFU C10orf10 (11716521_a_at) / Fold change /veh C10orf10 (11716521_a_at) / RFU C5orf56 (11738089_at) / Fold change /veh C5orf56 (11738089_at) / RFU CYB561 (11721691_x_at) / Fold change /veh CYB561 (11721691_x_at) / RFU ANKRD19P (11752326_a_at) / Fold change /veh ANKRD19P (11752326_a_at) / RFU OR2T12 /// OR2T33 /// OR2T8 (11738714_s_at) / Fold change /veh OR2T12 /// OR2T33 /// OR2T8 (11738714_s_at) / RFU VCAN (11748164_a_at) / Fold change /veh VCAN (11748164_a_at) / RFU JSRP1 (11732532_at) / Fold change /veh JSRP1 (11732532_at) / RFU KRTAP10-11 (11738290_x_at) / Fold change /veh KRTAP10-11 (11738290_x_at) / RFU MYO3A (11730013_a_at) / Fold change /veh MYO3A (11730013_a_at) / RFU EBF3 (11725865_a_at) / Fold change /veh EBF3 (11725865_a_at) / RFU CAMK2N1 (11719241_x_at) / Fold change /veh CAMK2N1 (11719241_x_at) / RFU C5orf56 (11738088_a_at) / Fold change /veh C5orf56 (11738088_a_at) / RFU OLFML3 (11715873_a_at) / Fold change /veh OLFML3 (11715873_a_at) / RFU LOC100653217 /// NTM (11731650_a_at) / Fold change /veh LOC100653217 /// NTM (11731650_a_at) / RFU MAPK11 (11762145_a_at) / Fold change /veh MAPK11 (11762145_a_at) / RFU FIZ1 (11724087_x_at) / Fold change /veh FIZ1 (11724087_x_at) / RFU OASL (11726364_x_at) / Fold change /veh OASL (11726364_x_at) / RFU SOX15 (11748057_x_at) / Fold change /veh SOX15 (11748057_x_at) / RFU CD79A (11719716_a_at) / Fold change /veh CD79A (11719716_a_at) / RFU HIST1H1D (11736915_at) / Fold change /veh HIST1H1D (11736915_at) / RFU CASKIN2 (11723855_a_at) / Fold change /veh CASKIN2 (11723855_a_at) / RFU LOC730098 (11760151_x_at) / Fold change /veh LOC730098 (11760151_x_at) / RFU OR4N2 (11742367_at) / Fold change /veh OR4N2 (11742367_at) / RFU PRRT2 (11749266_a_at) / Fold change /veh PRRT2 (11749266_a_at) / RFU SNX32 (11753110_a_at) / Fold change /veh SNX32 (11753110_a_at) / RFU CDHR5 (11726645_a_at) / Fold change /veh CDHR5 (11726645_a_at) / RFU RCAN1 (11760418_a_at) / Fold change /veh RCAN1 (11760418_a_at) / RFU FAM167A (11723789_a_at) / Fold change /veh FAM167A (11723789_a_at) / RFU FAM26E (11764081_at) / Fold change /veh FAM26E (11764081_at) / RFU ISYNA1 (11749810_s_at) / Fold change /veh ISYNA1 (11749810_s_at) / RFU ACY1 (11761880_at) / Fold change /veh ACY1 (11761880_at) / RFU 11764098_at / Fold change /veh 11764098_at / RFU SAMD14 (11745864_x_at) / Fold change /veh SAMD14 (11745864_x_at) / RFU NPB (11741838_a_at) / Fold change /veh NPB (11741838_a_at) / RFU TMPRSS6 (11731388_a_at) / Fold change /veh TMPRSS6 (11731388_a_at) / RFU KRTAP10-2 (11738614_at) / Fold change /veh KRTAP10-2 (11738614_at) / RFU ARHGAP8 /// PRR5-ARHGAP8 (11727945_x_at) / Fold change /veh ARHGAP8 /// PRR5-ARHGAP8 (11727945_x_at) / RFU KRTAP5-7 /// NADSYN1 (11734609_at) / Fold change /veh KRTAP5-7 /// NADSYN1 (11734609_at) / RFU RASL12 (11751679_a_at) / Fold change /veh RASL12 (11751679_a_at) / RFU CDKN2B (11736163_a_at) / Fold change /veh CDKN2B (11736163_a_at) / RFU PRF1 (11729649_at) / Fold change /veh PRF1 (11729649_at) / RFU, ZNF638 /// ZNF638-IT1 / Fold change vs veh, ZNF638 /// ZNF638-IT1 / RFU, PANK3 / Fold change vs veh, PANK3 / RFU, SH3YL1 / Fold change vs veh, SH3YL1 / RFU, ZEB2 / Fold change vs veh, ZEB2 / RFU, NRIP1 / Fold change vs veh, NRIP1 / RFU, PTTG1IP / Fold change vs veh, PTTG1IP / RFU, CAPN2 / Fold change vs veh, CAPN2 / RFU, MED14 / Fold change vs veh, MED14 / RFU, SNORA58 / Fold change vs veh, SNORA58 / RFU, C1orf63 / Fold change vs veh, C1orf63 / RFU, LRRFIP1 / Fold change vs veh, LRRFIP1 / RFU, NDUFAF7 / Fold change vs veh, NDUFAF7 / RFU, SLC12A2 / Fold change vs veh, SLC12A2 / RFU, IBTK / Fold change vs veh, IBTK / RFU, ESF1 / Fold change vs veh, ESF1 / Fold change vs veh, TMEM50B / RFU, TAOK1 / Fold change vs veh, TAOK1 / RFU, ACBD3 / Fold change vs veh, ACBD3 / RFU, TMA16 / Fold change vs veh, TMA16 / RFU, RWDD3 / Fold change vs veh, RWDD3 / RFU, BCAT1 / Fold change vs veh, BCAT1 / RFU, EDEM3 / Fold change vs veh, EDEM3 / RFU, TMEM33 / Fold change vs veh, TMEM33 / RFU, WDR75 / Fold change vs veh, WDR75 / RFU, AHCTF1 / Fold change vs veh, AHCTF1 / RFU, TFRC / Fold change vs veh, TFRC / RFU, ZDHHC17 / Fold change vs veh, ZDHHC17 / RFU, NOM1 / Fold change vs veh, NOM1 / RFU, ARL8B / Fold change vs veh, ARL8B / RFU, ZBTB11 / Fold change vs veh, ZBTB11 / RFU, TAMM41 / Fold change vs veh, TAMM41 / RFU, KIAA1704 /// LOC100996395 / Fold change vs veh, KIAA1704 /// LOC100996395 / RFU, ING1 / Fold change vs veh, ING1 / RFU, TRMT61B / Fold change vs veh, TRMT61B / RFU, FUBP3 / Fold change vs veh, FUBP3 / RFU, TP53 / Fold change vs veh, TP53 / RFU, TNKS2 / Fold change vs veh, TNKS2 / RFU, ZFP14 / Fold change vs veh, ZFP14 / RFU, ACTR2 / Fold change vs veh, ACTR2 / RFU, PPP3R1 / Fold change vs veh, PPP3R1 / RFU, PIK3R1 / Fold change vs veh, PIK3R1 / RFU, HNRNPA1 / Fold change vs veh, HNRNPA1 / RFU, RNF170 / Fold change vs veh, RNF170 / RFU, ZNF28 / Fold change vs veh, ZNF28 / RFU, RNGTT / Fold change vs veh, RNGTT / RFU, OGT / Fold change vs veh, OGT / RFU, BRD1 / Fold change vs veh, BRD1 / RFU, MARS / Fold change vs veh, MARS / RFU, ZNF655 / Fold change vs veh, ZNF655 / RFU, FAHD1 / Fold change vs veh, FAHD1 / RFU, BDP1 / Fold change vs veh, BDP1 / RFU, LRRCC1 / Fold change vs veh, LRRCC1 / RFU, ARID1A / Fold change vs veh, ARID1A / RFU, ZNF146 / Fold change vs veh, ZNF146 / RFU, ZNF330 / Fold change vs veh, ZNF330 / RFU, GPN3 / Fold change vs veh, GPN3 / RFU, C9orf123 / Fold change vs veh, C9orf123 / RFU, N4BP2L2 / Fold change vs veh, N4BP2L2 / RFU, ARFIP1 / Fold change vs veh, ARFIP1 / RFU, FAM179B / Fold change vs veh, FAM179B / RFU, BCL10 / Fold change vs veh, BCL10 / RFU, UHRF1BP1L / Fold change vs veh, UHRF1BP1L / RFU, BET1 / Fold change vs veh, BET1 / RFU, CNOT2 / Fold change vs veh, CNOT2 / RFU, ZNF268 / Fold change vs veh, ZNF268 / Fold change vs veh, ZNF507 / RFU, DGCR2 / Fold change vs veh, DGCR2 / RFU, WDSUB1 / Fold change vs veh, WDSUB1 / Fold change vs veh, HSP90B1 /// MIR3652 / RFU, ADSS / Fold change vs veh, ADSS / RFU, GK / Fold change vs veh, GK / RFU, ZNF148 / Fold change vs veh, ZNF148 / RFU, TAF9 / Fold change vs veh, TAF9 / RFU, SLC1A5 / Fold change vs veh, SLC1A5 / RFU, SLMO2 / Fold change vs veh, SLMO2 / RFU, ABCC4 / Fold change vs veh, ABCC4 / RFU, LOC101060439 /// RAP1B / Fold change vs veh, LOC101060439 /// RAP1B / RFU, RFX7 / Fold change vs veh, RFX7 / RFU, GTPBP10 / Fold change vs veh, GTPBP10 / RFU, CNEP1R1 / Fold change vs veh, CNEP1R1 / RFU, BIVM-ERCC5 /// ERCC5 / Fold change vs veh, BIVM-ERCC5 /// ERCC5 / RFU, ILF3 / Fold change vs veh, ILF3 / RFU 11762660_at / Fold change /veh 11762660_at / RFU VCAN (11757783_s_at) / Fold change /veh VCAN (11757783_s_at) / RFU DDX43 (11728927_at) / Fold change /veh DDX43 (11728927_at) / RFU KRT8 (11758188_x_at) / Fold change /veh KRT8 (11758188_x_at) / RFU NKD1 (11759106_at) / Fold change /veh NKD1 (11759106_at) / RFU SRD5A1 (11742802_a_at) / Fold change /veh SRD5A1 (11742802_a_at) / RFU TPSAB1 /// TPSB2 (11721975_s_at) / Fold change /veh TPSAB1 /// TPSB2 (11721975_s_at) / RFU GSTM3 (11746129_a_at) / Fold change /veh GSTM3 (11746129_a_at) / RFU IL23R (11737362_x_at) / Fold change /veh IL23R (11737362_x_at) / RFU TMEM51 (11727254_a_at) / Fold change /veh TMEM51 (11727254_a_at) / RFU PIWIL2 (11732686_x_at) / Fold change /veh PIWIL2 (11732686_x_at) / RFU ORM1 (11744905_x_at) / Fold change /veh ORM1 (11744905_x_at) / RFU CCDC152 (11743942_at) / Fold change /veh CCDC152 (11743942_at) / RFU ECM1 (11717891_a_at) / Fold change /veh ECM1 (11717891_a_at) / RFU IL23R (11748794_a_at) / Fold change /veh IL23R (11748794_a_at) / RFU TNFAIP8L3 (11732012_x_at) / Fold change /veh TNFAIP8L3 (11732012_x_at) / RFU MBOAT4 (11741988_at) / Fold change /veh MBOAT4 (11741988_at) / RFU 11764193_at / Fold change /veh 11764193_at / RFU TMEM53 (11763286_at) / Fold change /veh TMEM53 (11763286_at) / RFU MAGEB2 (11727129_at) / Fold change /veh MAGEB2 (11727129_at) / RFU TMEM200A (11744735_a_at) / Fold change /veh TMEM200A (11744735_a_at) / RFU CCDC152 (11751479_a_at) / Fold change /veh CCDC152 (11751479_a_at) / RFU FAM211A (11726209_a_at) / Fold change /veh FAM211A (11726209_a_at) / RFU RGS16 (11746705_a_at) / Fold change /veh RGS16 (11746705_a_at) / RFU VCAN (11755009_s_at) / Fold change /veh VCAN (11755009_s_at) / RFU RHOB (11743442_s_at) / Fold change /veh RHOB (11743442_s_at) / RFU RGS16 (11720943_a_at) / Fold change /veh RGS16 (11720943_a_at) / RFU RGS16 (11720944_at) / Fold change /veh RGS16 (11720944_at) / RFU, VPS4B / Fold change vs veh, VPS4B / RFU, CREB1 / Fold change vs veh, CREB1 / RFU, DNAJC13 / Fold change vs veh, DNAJC13 / RFU, GNAQ / Fold change vs veh, GNAQ / RFU, CDK5R1 / Fold change vs veh, CDK5R1 / RFU, ZRANB3 / Fold change vs veh, ZRANB3 / RFU, CUL4A / Fold change vs veh, CUL4A / RFU, CCNY / Fold change vs veh, CCNY / RFU, UFL1 / Fold change vs veh, UFL1 / RFU, COG3 / Fold change vs veh, COG3 / RFU, DIAPH2 / Fold change vs veh, DIAPH2 / RFU, SKA2 / Fold change vs veh, SKA2 / RFU, AFF3 / Fold change vs veh, AFF3 / RFU, LMF1 / Fold change vs veh, LMF1 / RFU, IPO11 / Fold change vs veh, IPO11 / RFU, DFFB / Fold change vs veh, DFFB / RFU, FOXP1 / Fold change vs veh, FOXP1 / RFU, CARD8 / Fold change vs veh, CARD8 / RFU, STRN3 / Fold change vs veh, STRN3 / RFU, ADK / Fold change vs veh, ADK / RFU, RASSF2 / Fold change vs veh, RASSF2 / RFU, WIPF1 / Fold change vs veh, WIPF1 / RFU, LARP1B / Fold change vs veh, LARP1B / RFU, RASA1 / Fold change vs veh, RASA1 / RFU, RB1 / Fold change vs veh, RB1 / RFU, PPFIA1 / Fold change vs veh, PPFIA1 / RFU, MAT2A / Fold change vs veh, MAT2A / RFU, CCT5 / Fold change vs veh, CCT5 / RFU, WDR92 / Fold change vs veh, WDR92 / RFU, CUX1 / Fold change vs veh, CUX1 / RFU, TTC7A / Fold change vs veh, TTC7A / RFU, TMEM135 / Fold change vs veh, TMEM135 / RFU, DEPTOR / Fold change vs veh, DEPTOR / RFU, CPM / Fold change vs veh, CPM / RFU, DNAJB6 / Fold change vs veh, DNAJB6 / RFU, CACNA2D3 / Fold change vs veh, CACNA2D3 / RFU, DTX4 / Fold change vs veh, DTX4 / RFU, TFCP2 / Fold change vs veh, TFCP2 / RFU, GMCL1 /// GMCL1P1 / Fold change vs veh, GMCL1 /// GMCL1P1 / RFU, AEBP2 / Fold change vs veh, AEBP2 / RFU, SNHG1 /// SNORD22 /// SNORD25 /// SNORD26 /// SNORD27 /// SNORD28 /// SNORD29 /// SNORD31 / Fold change vs veh, SNHG1 /// SNORD22 /// SNORD25 /// SNORD26 /// SNORD27 /// SNORD28 /// SNORD29 /// SNORD31 / Fold change (Aza/veh), C12orf56 (ProbeSet 11735607_a_at) / Fold change (ACY-1035/veh), C12orf56 (ProbeSet 11735607_a_at) / Fold change (Aza/veh), FGFR1OP (ProbeSet 11751329_s_at) / Fold change (ACY-1035/veh), FGFR1OP (ProbeSet 11751329_s_at) / Fold change (Aza/veh), VPS36 (ProbeSet 11739960_a_at) / Fold change (ACY-1035/veh), VPS36 (ProbeSet 11739960_a_at) / RFU SYPL1 (11715823_x_at) / Fold change /veh SYPL1 (11715823_x_at) / RFU IGFBP7 (11715501_s_at) / Fold change /veh IGFBP7 (11715501_s_at) / RFU REEP3 (11722064_at) / Fold change /veh REEP3 (11722064_at) / RFU IGLL1 (11728026_x_at) / Fold change /veh IGLL1 (11728026_x_at): dose or concentration left out as unconfirmed
Conditions: MV-4-11 cells, 48 hours

Question: `Nc1ncn([C@@H]2O[C@H](CO)[C@@H](O)[C@H]2O)c(=O)n1` [azacitidine] was tested. Which “RFU RNFT2 (11725882_a_at)” value did it give?
Answer: 15.64 RFU
